Assay [1] addresses T1, Human vitronectin receptor (αvβ3) (Homo sapiens, UniProt P05106+P06756).
T1 construct: Human vitronectin receptor (αvβ3) was purified from human placenta; from tissue; host or cells: human placenta
The assay is described as follows: Vitronectin adhesion assay (solid phase receptor assay, competition with biotinylated vitronectin). Format: binding. Particulars: read-out: AvB3 IC50. Put shortly: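 Purified human αvβ3 coated overnight at 4 °C in TBS with 1.0 mM Ca++, Mg++, Mn++, pH 7.4; compounds (top final 1.0×10^−4 M) competed with 1 nM biotinylated vitronectin for 2 h at room temperature. Bound ligand detected by HRP anti-biotin/OPD at A450; values normalized to no-competitor controls, four-parameter curve fit.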

The target in assay [2] is T2, Human fibrinogen receptor (αIIbβ3) (Homo sapiens, UniProt P05106+P08514).
T2 construct: Human fibrinogen receptor (αIIbβ3) was purified from outdated platelets; from tissue; host or cells: outdated human platelets
Put plainly: Purified IIb/IIIa receptor assay (solid phase receptor assay, competition with biotinylated vitronectin). Format: binding. Particulars: read-out: IIb/IIIa IC50. The essentials: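 Purified platelet αIIbβ3 coated overnight at 4 °C in TBS with 1.0 mM Ca/Mg/Mn, pH 7.4, then BSA-blocked. Compounds (top 1.0×10^−4 M) competed with 1 nM biotinylated vitronectin for 2 h at room temperature. Bound label detected by HRP anti-biotin, A450; values normalized to no-competitor controls, four-parameter fit.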

Counter-ions that a name gives are not always drawn.

For `O=C(O)CC(NC(=O)CNC(=O)c1cccc(NC(=O)NCc2ccccn2)c1)c1cccnc1` (stereo not drawn) [Example 268, β[[2-[[[3-[[[(2-pyridinylmethyl)amino]carbonyl]amino]phenyl]carbonyl]amino]acetyl]amino]pyridine-3-propanoic acid, (bis)trifluoroacetate salt], the IC50 in assay [1] worked out at 0.67 nM; in assay [2], 7430 nM.
For `O=C(O)CC(NC(=O)CNC(=O)c1cccc(NC(=O)NCc2ccccc2)c1)c1cc(Cl)cc(Cl)c1` (stereo not drawn) [Example 269, 3,5-dichloro-β-[[2-[[[3-[[[(phenylmethyl)amino]carbonyl]amino]phenyl]carbonyl]amino]acetyl]amino]benzenepropanoic acid, monohydrate] the same measures were 209 nM and 25400 nM.
Turning to `O=C(O)CC(NC(=O)CNC(=O)c1cccc(NC(=O)NCc2ccccc2)c1)c1cccc(Cl)c1` (stereo not drawn) [Example 270, 3-chloro-β-[[2-[[[3-[[[(phenylmethyl)amino]carbonyl]amino]phenyl]carbonyl]amino]acetyl]amino]benzenepropanoic acid, monohydrate], the IC50 in assay [1] amounted to 5.51 nM; in assay [2] it was 9160 nM.
Turning to `CC(NC(=O)Nc1cccc(C(=O)NCC(=O)NC(CC(=O)O)c2cccnc2)c1)c1ccccc1` (stereo not drawn) [Example 271, β-[[2-[[[3-[[[(1-phenylethyl)amino]carbonyl]amino]phenyl]carbonyl]amino]acetyl]amino]pyridine-3-propanoic acid, trifluoroacetate salt], the IC50 is 29.9 nM in assay [1] and 4610 nM in assay [2].
For `O=C(O)CC(NC(=O)CNC(=O)c1cccc(NC(=O)NCc2nc3ccccc3[nH]2)c1)c1cc(Cl)cc(Cl)c1` (stereo not drawn) [Example 272, β-[[2-[[[3-[[[[(1H-benzimidazol-2-yl)methyl)amino]carbonyl]amino]phenyl]carbonyl]amino]acetyl]amino]-3,5-dichlorobenzenepropanoic acid, trifluoroacetate salt], the values for the IC50 in assay [1] and in assay [2] were 893 nM and 8210 nM, respectively.
In the same order, the values of `O=C(O)CC(NC(=O)CNC(=O)c1cccc(NC(=O)NCc2cc(Cl)cc(Cl)c2)c1)c1cccnc1` (stereo not drawn) [Example 273, β-[[2-[[[3-[[[[(3,5-dichlorophenyl)methyl]amino]carbonylamino]phenyl]carbonyl]amino]acetyl]amino]pyridine-3-propanoic acid, trifluoroacetate salt] are 12.9 nM and 4160 nM.
Regarding `CC(CC(=O)O)NC(=O)CNC(=O)c1cccc(NC(=O)NCc2cc(Cl)cc(Cl)c2)c1` (stereo not drawn) [Example 274, 3-[[2-[[[3-[[[[(3,5-dichlorophenyl)methyl]amino]carbonyl]amino]phenyl]carbonyl]amino]acetyl]amino]butanoic acid], the figures for the IC50 in assay [1] and in assay [2] were 31.1 nM and 21200 nM, respectively.
For `CC(C)Oc1cc(OC(C)C)cc(C(CC(=O)O)NC(=O)CNC(=O)c2cccc(NC(=N)N)c2)c1` (stereo not drawn) [Example 275, β-[[2-[[[3-[(aminoiminomethyl)amino]phenyl]carbonyl]amino]acetyl]amino]-3,5-bis(1-methylethoxy)benzenepropanoic acid, trifluoroacetate salt] the same measures were 6.98 nM and 1200 nM.
Turning to `N=C(N)Nc1cccc(C(=O)NCC(=O)NC(CC(=O)O)c2cc(Br)c(O)c(Br)c2)c1` (stereo not drawn) [Example 276, β-[[2-[[[3-[(aminoiminomethyl)amino]phenyl)carbonyl]amino]acetyl]amino]-3,5-dibromo-4-hydroxybenzenepropanoic acid, trifluoroacetate salt], the IC50 is 1.25 nM in assay [1] and 111 nM in assay [2].
In the same order, the values of `N=C(N)Nc1cccc(C(=O)NCC(=O)NC(CC(=O)O)c2cc(Cl)c(O)c(Cl)c2)c1` (stereo not drawn) [Example 277, β-[[2-[[[3-[(aminoiminomethyl)amino]phenyl]carbonyl]amino]acetyl]amino]-3,5-dichloro-4-hydroxybenzenepropanoic acid, trifluoroacetate salt] are 1.41 nM and 198 nM.
For `O=C(O)CC(NC(=O)CNC(=O)c1cccc(NC2=NCCCS2)c1)c1cccnc1` (stereo not drawn) [Example 278, β-[[2-[[[3-[(5,6-dihydro-4H-thiazin-2-yl)amino]phenyl]carbonyl]amino]acetyl]amino]pyridine-3-propanoic acid, bis(trifluoroacetate)salt] the same measures were 0.45 nM and 150 nM.
In the same order, the values of `N=C(N)Nc1ccc(O)c(C(=O)NCC(=O)NC(CC(=O)O)c2cc(Cl)cc(Cl)c2)c1` (stereo not drawn) [Example 279, β-[[2-[[[5-[(aminoiminomethyl)amino]-2-hydroxyphenyl]carbonyl]amino]acetyl]amino]-3,5-dichlorobenzenepropanoic acid, trifluoroacetate salt] are 7.12 nM and 637 nM.
On to `O=C(O)CC(NC(=O)CNC(=O)c1cccc(NC(=O)NNc2ccccc2)c1)c1cccnc1` (stereo not drawn) [Example 281, β-[[2-[[[3-[[[(phenylamino)amino]carbonyl]amino]phenyl]carbonyl]amino]acetyl]amino]pyridine-3-propanoic acid, trifluoroacetate salt], for which the IC50 in assay [1] was found to be 4.16 nM; in assay [2], 11500 nM.
For `Nc1nnc(Nc2cccc(C(=O)NCC(=O)NC(CC(=O)O)c3cc(Cl)cc(Cl)c3)c2)[nH]1` (stereo not drawn) [Example 282, β-[[2-[[[3-[(5-amino-1,2,4-triazol-3-yl)amino]phenyl]carbonyl]amino]acetyl]amino]-3,5-dichlorobenzenepropanoic acid, trifluoroacetate salt] the same measures were 864 nM and 9770 nM.
For `O=C(O)CC(NC(=O)CNC(=O)c1cccc(Nc2cc(=O)[nH]c(=O)[nH]2)c1)c1cc(Cl)cc(Cl)c1` (stereo not drawn) [Example 284, 3,5-dichloro-β-[[2-[[[3-[[1,2,3,4-tetrahydro-2,4-dioxopyrimidin-6-yl)amino]phenyl]carbonyl]amino]acetyl]amino]benzenepropanoic acid] the same measures were 195 nM and 18400 nM.
In the same order, the values of `N=C(Nc1cccc(C(=O)NCC(=O)NC(CC(=O)O)c2cc(Cl)cc(Cl)c2)c1)N1CCCCC1` (stereo not drawn) [Example 285, 3,5-dichloro-β-[[2-[[[3-[[imino(1-piperidinyl)methyl]amino]phenyl]carbonyl]amino]acetyl]amino]benzenepropanoic acid, trifluoroacetate salt] are 229 nM and 3170 nM.
For `O=C(O)CC(NC(=O)CNC(=O)c1cccc(Nc2nc3ccccc3o2)c1)c1cccnc1` (stereo not drawn) [Example 286, β-[[2-[[[3-[[benzoxazol-2-yl)amino]phenyl]carbonyl]amino]acetyl]amino]pyridine-3-propanoic acid, trifluoroacetate salt], the IC50 in assay [1] worked out at 413 nM; in assay [2], 8090 nM.
For `O=C(O)CC(NC(=O)CNC(=O)c1cccc(Nc2ncc(-c3ccccc3)[nH]2)c1)c1cccnc1` (stereo not drawn) [Example 287, β-[[2-[[[3-[[5-phenyl-1H-imidazol-2-yl)amino]phenyl]carbonylamino]acetyl]amino]pyridine-3-propanoic acid, trifluoroacetate salt] the same measures were 49.7 nM and 41.1 nM.
For `N=C(N)Nc1cccc(C(=O)NCC(=O)NC(CC(=O)O)CC(=O)Nc2cc(Cl)cc(Cl)c2)c1` (stereo not drawn) [Example 288, 3-[[2-[[[3-[(aminoiminomethyl)amino]phenyl]carbonyl]amino]acetyl]amino)-5-[(3,5-dichlorophenyl)amino]-5-oxopentanoic acid, trifluoroacetate salt], the IC50 stood at 8.62 nM in assay [1] and 1060 nM in assay [2].
In the same order, the values of `N=C(N)Nc1cc(C(=O)O)cc(C(=O)NCC(=O)NC(CC(=O)O)c2cccnc2)c1` (stereo not drawn) [Example 289, β-[[2-[[[3-[(aminoiminomethyl)amino]-5-carboxyphenyl]carbonyl]amino]acetyl]amino]pyridine-3-propanoic acid, bis(trifluoroacetate)salt] are 0.9 nM and 621 nM.
Take `N=C(N)Nc1cc(C(=O)O)cc(C(=O)NCC(=O)NC(CC(=O)O)c2cc(Cl)cc(Cl)c2)c1` (stereo not drawn) [Example 290, β-[[2-[[[3-[(aminoiminomethyl)amino]-5-carboxyphenyl]carbonyl]amino]acetyl]amino]-3,5-dichlorobenzenepropanoic acid, trifluoroacetate salt]: the IC50 in assay [1] stood at 1.62 nM; in assay [2], 1020 nM.
Consider `N=C(N)Nc1cc(NC(=N)N)cc(C(=O)NCC(=O)NC(CC(=O)O)c2cc(Cl)cc(Cl)c2)c1` (stereo not drawn) [Example 291, β-[[2-[[[3,5-bis[(aminoiminomethyl)amino]phenyl]carbonyl)amino]acetyl]amino]-3,5-dichlorobenzenepropanoic acid, bis(trifluoroacetate)salt], for which the IC50 in assay [1] was determined as 1.24 nM; in assay [2], 37.4 nM.
In the same order, the values of `N=C(N)Nc1cc(NC(=O)C(F)(F)F)cc(C(=O)NCC(=O)NC(CC(=O)O)c2cc(Cl)cc(Cl)c2)c1` (stereo not drawn) [Example 292, β-[[2-[[[3-[(aminoiminomethyl)amino]-5-(trifluoroacetyl)amino]phenyl]carbonyl]amino]acetyl]amino]-3,5-dichlorobenzenepropanoic acid, trifluoroacetate salt] are 3.55 nM and 337 nM.
In the same order, the values of `N=C(N)Nc1cccc(C(=O)NCC(=O)NC(CC(=O)O)c2ccc(F)cc2)c1` (stereo not drawn) [Example 363, β-[[2-[[[3-[(aminoiminomethyl)amino]phenyl]carbonyl]amino]acetyl]amino]-4-fluorobenzenepropanoic acid, trifluoroacetate salt] are 2.12 nM and 509 nM.

The values are drawn from US6831199B1, “Pyrimidine compounds and derivatives thereof” (G. D. Searle & Co., priority 1995, dated 2004).
